According to patent US5476952A, “Antitumor cyclopentnaphthoquinone and cyclopentanthraquinone derivatives” (Sloan-Kettering Institute for Cancer Research, priority 1993, dated 1995):
Where two headings read alike, the source gives them in different places.

Key:
L1210 cells = assay: effect against L1210 in mice (mice inoculated i.p. with L1210 cells); assay type: in vivo; parameters: AST / survival time: unit not given here; details: for % ILS (increase in lifespan): 25% or greater considered significant; for survival time: individual mice
Source text: *Increase in lifespan of 25% or greater is considered to be significant.
Mice dying of toxicity (t) not included in AST evaluation.

human leukemic HL-60 = assay: in vitro cell growth inhibition, HL-60; assay type: cell-based; details: for IC50 / antitumor activity against human leukemic HL-60 cell growth (in words): HL-60, in vitro
Source text: (§1) Compounds of the invention show antitumor activity. The antitumor activity of the representative cyclopentanthraquinone derivatives is compared with Mitomycin C, m-AMSA and adriamycin.

MT4 = assay: in vitro cell growth inhibition, MT4; assay type: cell-based, human; details: for IC50 / antitumor activity against MT4 cell growth (in words): MT4, in vitro
Source text: as §1

L1210 = assay: in vitro cell growth inhibition, L1210; assay type: cell-based
Source text: as §1

[1] = system: certain tumor cell growth; details: literature; without alkylating side chain; cited from earlier work
DNA = details: literature; cited from earlier work
[2] = literature; cited from earlier work
[3] = L1210, in vitro, read-out: IC50 for Cell Growth Inhibition, L1210
[4] = Mus musculus, L1210, in vitro, read-out: IC50 for Cell Growth Inhibition, L1210

| Structure (SMILES) | AST (L1210 cells; 2.5 mg/kg QD x5, i.p.) | N/T (L1210 cells; 2.5 mg/kg QD x5, i.p.) | % ILS (increase in lifespan) (L1210 cells; 2.5 mg/kg QD x5, i.p.) [%] | day 4 AWC (L1210 cells; 2.5 mg/kg QD x5, i.p.) | N/T (L1210 cells; 5.0 mg/kg QD x5, i.p.) | day 4 AWC (L1210 cells; 5.0 mg/kg QD x5, i.p.) [g] | AST (L1210 cells; 20 mg/kg x1, i.p.) | N/T (L1210 cells; 20 mg/kg x1, i.p.) | % ILS (increase in lifespan) (L1210 cells; 20 mg/kg x1, i.p.) [%] | survival time (L1210 cells; 20 mg/kg x1, i.p.) | antitumor activity against L1210 cell growth (in words) (L1210; L1210, in vitro) | IC50 (L1210; [4]) [nM] | also measured |
| --- | --- | --- | --- | --- | --- | --- | --- | --- | --- | --- | --- | --- | --- |
| O=C1c2ccccc2C(=O)c2c1cc(OCCN(CCCl)CCCl)c1c2CC2NC12 (stereo not drawn) [compound IIc, 2,3-aziridino-4-[2-bis(2-chloroethyl)amino]-ethoxy-2,3-dihydro-1H-cyclopent [a]anthracene-6,11-dione] | 9.0 | 0/3 | 36 | +0.3 g | 0/3 | -0.3 | 9.0 | 0/1 | 36 | 9 | much greater antitumor activity than that of IIa and IIb | – | AST (L1210 cells; 5.0 mg/kg QD x5, i.p.): 9.0; % ILS (increase in lifespan) (L1210 cells; 5.0 mg/kg QD x5, i.p.): 36%; day 7 AWC (L1210 cells; 5.0 mg/kg QD x5, i.p.): +1.7 g; day 4 AWC (L1210 cells; 20 mg/kg x1, i.p.): -2.5 g; day 7 AWC (L1210 cells; 20 mg/kg x1, i.p.): +1.5 g; IC50 (human leukemic HL-60): 75 nM; antitumor activity against human leukemic HL-60 cell growth (in words) (human leukemic HL-60): significant antitumor activity; potency relative to m-AMSA against HL-60 cell growth (human leukemic HL-60; compared with m-AMSA, HL-60): as potent as m-AMSA; IC50 (MT4): 69 nM; antitumor activity against MT4 cell growth (in words) (MT4): significant antitumor activity; activity relative to m-AMSA against MT4 cell growth (MT4; compared with m-AMSA, MT4): half as active as m-AMSA; IC50 (L1210; [3]): 64 nM |
| Cc1cc(O)c2c(c1)C(=O)c1cccc(O)c1C2=O [chrysophanol] | – | – | – | – | – | – | – | – | – | – | – | – | activity of the parent natural product (in words) [1]: inactive |
| CCN(CC)CCNc1ccc(C)c2sc3ccccc3c(=O)c12 [lucanthone] | – | – | – | – | – | – | – | – | – | – | – | – | interaction with DNA (in words) (DNA): capable of intercalating into DNA and monoalkylating the DNA; antischistosomal and antitumor activity (in words) [2]: potent antischistosomal and antitumor activity |
| Cc1cc(O)c2c(c1)C(=O)c1cc(O)cc(O)c1C2=O [emodin] | – | – | – | – | – | – | – | – | – | – | – | – | activity of the parent natural product (in words) [1]: inactive |
| COc1cc(NS(C)(=O)=O)ccc1Nc1c2ccccc2nc2ccccc12 [m-AMSA, reference compound] | – | – | – | – | – | – | – | – | – | – | – | 4 | IC50 (human leukemic HL-60; Homo sapiens): 80 nM; IC50 (MT4; Homo sapiens): 34 nM |
| CO[C@@]12[C@H](COC(N)=O)C3=C(C(=O)C(C)=C(N)C3=O)N1C[C@@H]1N[C@@H]12 [Mit-C, reference compound] | 12.7 | 0/3 | 92 | +1.0 g | 0/3 | -2.0 | 11.0 | 0/1 | 67 | 11 | – | 5 | day 7 AWC (L1210 cells; 2.5 mg/kg QD x5, i.p.): -0.3 g; interaction with DNA (in words) (DNA): bind covalently at the minor groove of DNA double strand forming interstrand cross-links |
| O=C1c2ccccc2C(=O)c2c1cc(OCCN(CCCl)CCCl)c1c2CCC1 [compound IIb, 4-[2-bis(2-chloroethyl)amino]ethoxy-2,3-dihydro-1H-cyclopent[a]anthracene-6,11-dione] | 9.0 | 0/3 | 36 | +0.3 g | 0/3 | -0.3 | 9.0 | 0/1 | 36 | 9 | significant antitumor activity | – | day 7 AWC (L1210 cells; 2.5 mg/kg QD x5, i.p.): +1.0 g; AST (L1210 cells; 5.0 mg/kg QD x5, i.p.): 9.0; % ILS (increase in lifespan) (L1210 cells; 5.0 mg/kg QD x5, i.p.): 36%; day 7 AWC (L1210 cells; 5.0 mg/kg QD x5, i.p.): +0.7 g; day 4 AWC (L1210 cells; 20 mg/kg x1, i.p.): -2.5 g; day 7 AWC (L1210 cells; 20 mg/kg x1, i.p.): +0.5 g; IC50 (human leukemic HL-60): 180 nM; antitumor activity against human leukemic HL-60 cell growth (in words) (human leukemic HL-60): significant antitumor activity; IC50 (MT4): 110 nM; antitumor activity against MT4 cell growth (in words) (MT4): significant antitumor activity; IC50 (L1210; [3]): 290 nM |
| O=C1c2ccccc2C(=O)c2c1ccc1c2CC2NC12 (stereo not drawn) [compound IIa, 2,3-aziridino-2,3-dihydro-1H-cyclopent[a]anthracene-6,11-dione] | – | – | – | – | – | – | – | – | – | – | less activity | – | IC50 (L1210; Mus musculus, L1210, read-out: IC50 for Cell Growth Inhibition, L1210): 9090 nM |
| COc1cccc2c1C(=O)c1c(O)c3c(c(O)c1C2=O)C[C@@](O)(C(=O)CO)C[C@@H]3O[C@H]1C[C@H](N)[C@H](O)[C@H](C)O1 [Adriamycin, reference compound] | – | – | – | – | – | – | – | – | – | – | – | 20 | IC50 (human leukemic HL-60; Homo sapiens): 30 nM |
